The results in this text go back to patent US8067391B2, “ODCase inhibitors for the treatment of malaria” (University Health Network, priority 2005, dated 2011).

By IC50 is commonly meant the concentration that inhibits the measured activity by half. The term CC50 denotes the concentration giving 50% cytotoxicity. High values mean better tolerance by the cells, low ones harm at low concentration.

Where two headings read alike, the source gives them in different places.

The subject of one data set is Plasmodium falciparum. Nature of the data set: anti-malarial activity against Plasmodium falciparum. The format is cell-based. As to conditions: read-out: IC50 anti-malarial activity. The protocol:
(§1) Assays comparing the antiplasmodial activities of the compounds of the invention were performed using the SYBR-Green method.^xlviii Briefly, the compounds were dissolved in DMSO to achieve a concentration of 10 mg/mL. Fifty microliters of RPMI-A were added to each well in a 96-well plate before 40 μL of RPMI-A and 10 μL of compound solution were added to the first well, the contents of the well were mixed, 50 μL were removed and added to the next well in the series and the process was repeated until the next-to-last well was reached. This produced a plate with a series of two-fold dilutions across it, except for the last well in the series, which contained RPMI-A alone. Fifty microliters of parasite culture (2% hematocrit, 2% parasitemia) were added to each well and the plates were then incubated at 37° C. in 95% N2, 3% CO2, and 2% O2 for 72 hrs.

The next data set relates to Plasmodium vivax. In words: anti-malarial activity against Plasmodium vivax. The format is cell-based. As to conditions: range stated for the group of compounds.
Another data set has as its system P. falciparum 3D7. Nature of the data set: antiplasmodial activity, SYBR-Green method, P. falciparum 3D7 isolate. As to conditions: Plasmodium falciparum, in vitro, FIG. 4, read-out: IC50 anti-plasmodial activity. In kind it is cell-based. On the procedure: as §1
(§2) CHO cells (ATCC, Manassas, Va.) were grown in RPMI-1640 supplemented with 10% fetal calf serum (Sigma, St. Louis, Mo.), 25 mM HEPES and gentimicin (RPMI-10). Cells were seeded in 96 well plates and grown to 50% confluency in 100 μL of RPMI-10 per well prior to the addition of either DMSO alone, or a test compound dissolved in DMSO to a concentration of 10 mg/mL. […]

Data set [1] relates to human primary blood cells (PBLs). In words: human primary blood cell assay (H-3 incorporation, Con A stimulated). The format is cell-based. The protocol:
The following procedure was used to conduct human primary blood cell assays. Added 3 ml of PBS (OCI media facility) to 3 ml of serum depleted blood from normal, adult, human controls. Pipetted 6 ml Ficoll-Paque Plus (Amersham 17-1440-03) into a 15 ml centrifuge tube. Overlaid with PBS diluted blood. Centrifuged at 2500 rpm for 10 minutes at room temperature, no brake.
Removed and discarded upper (PBS) phase. Transferred cells at the PBS/Ficoll interface to a clean 15 ml centrifuge tube. Added 10 mL PBS. Then, centrifuged at 1250 rpm for 10 minutes at room temperature.
Discarded the supernatant and resuspended the cell pellet in Iscove's Modified Dulbecco's Medium (Gibco 12440 prepared by OCI Media facility) supplemented with 5.5×10^-5M 2ME (Fisher 03446-100) and 5% FBS (Hyclone SH-30397-03 Lot # KPG21604). Plated cells at 50,000 cells per well in 96 well flat bottom plates (Costar 3595). Added Concanavalin A (Pharmacia 17-0450-01) to a final concentration of 1.5 micro gm/ml. All conditions were set in triplicate.
Included untreated (Con A alone) controls. Cultured cells for 48 hours or 72 hours at 37° C. with 5% CO2 and 90% relative humidity. Added 0.5 uCi H-3 (Perkin Elmer NET027A) per well in 10 microL for the last 8 hours of the culture period. […]
Dried plates for 1 hour at 37° C. […] Data was collected by reading the radioactivity counts.

The subject of data set [2] is P. burghei. In words: mouse efficacy study against plasmodia. In kind it is in vivo, mice. From the text: P. chabaudi chabaudi (Pcc) AS infection: They are two different species of mouse malaria that are used commonly in mice efficacy studies: P. chabaudi chabaudi AS and P. burghei. Pcc strain induces larger load of parasites and even some mouse strains die. If P. burghei strain is given to the mouse, they develop fewer parasites but become very sick. Pcc strain provides an opportunity in mice to observe if parasite numbers are reduced in the context of a reasonably healthy animal. Thus, Pcc strain was used in the efficacy model.
Blood-stage PCCAS was maintained in as described (Podoba J E and Stevenson, 1991)[2]. Infections in experimental animals were initiated by intraperitoneal injection of 1×10^6 P. chabaudi chabaudi AS-infected erythrocytes (PCCAS). Course of infection was monitored daily for 18 days by determining parasitemia on thin-blood smears stained with Diff Quik (American Scientific Products, Mississauga, ON). Compounds to be assayed were made up in RPMI 1640 at the concentration required to deliver the target dose in a total volume of 0.5 mL and were then filter sterilized. Compounds were stored at 4° C. prior to use. After infection the presence of parasites in the peripheral circulation was monitored daily until parasites were first observed. The mice were then injected daily for three consecutive days with either RPMI 1640 alone or compound dissolved in RPMI. The health of the animals was assessed daily and the parasitemia determined by examining blood films.
(§3) Efficacy studies in mice were performed using Ii to test the in vivo potential of this compound. Mice were infected with P. burghei, a mouse strain similar to the human malaria parasite P. falciparum. P. burghei strain is approximately 20 times less sensitive to Ii, so the dose in mice had to be adjusted accordingly. Parasitemia was monitored in mice after the drug was given at two different doses: 0.6 mg/mouse (n=3) and 6 mg/mouse (n=3). There was a control group of mice without any treatment with Ii.

Data set [3] is described as follows: toxicity to human fibroblast (HFF) cell line. The format is cell-based. As to conditions: human fibroblast (HFF) cells.
In data set [4] the test system is P. burghei. In words: sensitivity of P. burghei strain compared with P. falciparum. As to conditions: P. burghei strain vs P. falciparum. On the procedure:
as §3

Data set [5] is described as follows: toxicity to Vero cell line. In kind it is cell-based. As to conditions: African green monkey, Vero cells.
The test system of the next data set is P. falciparum ItG. Nature of the data set: antiplasmodial activity, SYBR-Green method, P. falciparum ItG isolate. As to conditions: Plasmodium falciparum, in vitro, FIG. 4, read-out: IC50 anti-plasmodial activity. In kind it is cell-based. On the procedure: as §1, §2
The nature of data set [6]: CHO cell toxicity assay (MTT). The format is cell-based. As to conditions: Chinese hamster, CHO cells; CHO cell line. The protocol: CHO cells (ATCC, Manassas, Va.) were grown in RPMI-1640 supplemented with 10% fetal calf serum (Sigma, St. Louis, Mo.), 25 mM HEPES and gentimicin (RPMI-10). Cells were seeded in 96 well plates and grown to 50% confluency in 100 μL of RPMI-10 per well prior to the addition of either DMSO alone, or a test compound dissolved in DMSO to a concentration of 10 mg/mL. Compound gradients were prepared by adding 90 μL of RPMI-10 mixed with 10 μL of compound solution to the first well in the series, mixing, transferring 100 μL to next well and repeating until the next-to-last well was reached. After 48 hrs, the viability of the cells was determined by discarding the media in the wells and adding 100 μL of 10 mg/mL of 3-[4,5-dimethylthiazol-2-yl]-2,5-diphenyltetrazolium bromide (MTT, Sigma, St. Louis, Mo.) in RPMI-10, incubating the plates for an additional hour, and then removing the media and adding 100 μL of DMSO and reading the absorbance at 650 nm.^xlix The IC50 values of individual compounds were determined applying a non-linear regression analysis of the dose-response curve using the computer program SigmaPlot (Jandel Scientific).

Another data set relates to ODCase. Nature of the data set: ODCase inhibition (isothermal titration calorimetry enzymology). The format is biochemical. On the procedure:
(a) Enzymology. ODCase from M. thermoautotrophicum (Mt) and compound Id were incubated at room temperature in the reaction buffer (50 mM Tris, 20 mM DTT, 40 mM NaCl, pH 7.5). The concentrations of the Id were 1×, 2.5×, 3.5× and 5× of the enzyme concentration, corresponding to 50, 125, 175 and 250 μM, respectively. The remaining enzyme activity in the enzyme-inhibitor reaction mixture was measured after 30 min, 2, 4, 8, 12, 24, 48 and 96 hours after the onset of incubation. Aliquots (1 μL) were removed from the reaction mixture and diluted to 2.5 mL with the assay buffer (50 mM Tris, 1 mM DTT, pH 7.5). […]
The inhibition of ODCase from P. falciparum (Pf) was assayed in a similar manner. […] The remaining activity of ODCase was measured at 37° C. for up to 48 hrs. […]
The Pf ODCase concentration in each of the samples (15, 30, and 45 min incubation times) was 60 nM. […] The remaining enzyme activities in these samples were measured by injecting 3 μL of 2.85 mM OMP. The enzyme activity at t=0 was measured by injecting OMP and 6-iodo-UMP simultaneously into the 60 nM enzyme solution in the ITC sample chamber. […] The control sample with 60 nM enzyme was incubated for 15-45 minutes at 37° C., and the enzyme activity was measured after the addition of 3 μL of 2.85 mM OMP. […]
Half-time of inactivation t1/2 was calculated from: t1/2=0.693/kinact (3)
On the technique in general: ITC needs no label: the signal is the heat of the interaction.

Where [7] appears, read: range stated for the group of compounds.

For `Nc1cc(=O)[nH]c(=O)n1[C@@H]1O[C@H](COP(=O)(O)O)[C@@H](O)[C@H]1O` [Ie, 6-Amino uridine-5′-O-monophosphate], the IC50 with Plasmodium falciparum (setting [7]) and in the data set with Plasmodium vivax was 20 to 2000 µM throughout.
Regarding `Nc1c(F)c(=O)[nH]c(=O)n1[C@@H]1O[C@H](CO)[C@@H](O)[C@H]1O` [In, 5-Fluoro-6-amino uridine], the IC50 in the data set on Plasmodium falciparum (setting [7]) and with Plasmodium vivax was 20 to 2000 µM throughout.
Turning to `O=c1cc(I)n([C@@H]2O[C@H](COP(=O)(O)O)[C@@H](O)[C@H]2O)c(=O)[nH]1` [Ij, 6-Iodo uridine-5′-O-monophosphate], the IC50 in the data set on Plasmodium falciparum (setting [7]) and in the data set with Plasmodium vivax was 20 to 2000 µM in each case.
As for `O=c1cc(I)n([C@@H]2O[C@H](CO)[C@@H](O)[C@H]2O)c(=O)[nH]1` [Ii, 6-Iodo-uridine], the IC50 in the data set on P. falciparum 3D7 is 6.2 ± 0.7 µM; in data set [3], greater than 300 µM; in the data set with P. falciparum ItG, 4.4 ± 1.3 µM. In data set [1], the “toxicity not observed up to” value is reported as greater than 200 mM. In addition, the parasitemia in mice result with P. burghei [2] (mice infected with P. burghei, 0.6 and 6 mg/mouse, vs untreated controls, dose-dependent, FIG. 5) is reported as “decreased parasitemia”. In addition, the survival rate result with P. burghei [2] (mice infected with P. burghei, treated vs controls, FIG. 6) was “longer survival time”. Further, the “survival, multiple dosing, higher doses” value in the data set on P. burghei [2] (mouse efficacy study with multiple dosing, vs no drug, FIG. 7) was “increased survival”. Also, in the data set on P. burghei [4], the “times less sensitive than P. falciparum” value is “approximately 20 times”. Moreover, the CC50 in [5] is greater than 300 µM. The compound further came in with an IC50 at 48 h in data set [6] of 366 ± 45 µM. Also, the “type of ODCase inhibition” value with ODCase is “covalent inhibitor”.
Regarding `Nc1cc(=O)[nH]c(=O)n1[C@@H]1O[C@H](CO)[C@@H](O)[C@H]1O` [Compound Ic, 6-Amino uridine], the IC50 with Plasmodium falciparum (setting [7]) and in the data set with Plasmodium vivax was 20 to 2000 µM throughout.
As for `[N-]=[N+]=Nc1c(F)c(=O)[nH]c(=O)n1[C@@H]1O[C@H](CO)[C@@H](O)[C@H]1O` [Io, 5-fluoro-6-azido uridine], the IC50 in the data set on Plasmodium falciparum (setting [7]) and with Plasmodium vivax was 20 to 2000 µM in each case.
As for `[N-]=[N+]=Nc1cc(=O)[nH]c(=O)n1[C@@H]1O[C@H](COP(=O)(O)O)[C@@H](O)[C@H]1O` [If, 6-Azido uridine-5′-O-monophosphate], the IC50 in the data set on Plasmodium falciparum (setting [7]) and in the data set on Plasmodium vivax was 20 to 2000 µM each time.
Take `N#Cc1cc(=O)[nH]c(=O)n1[C@@H]1O[C@H](CO)[C@@H](O)[C@H]1O` [Ia, 6-Cyanouridine]: the IC50 in the data set on Plasmodium falciparum (setting [7]) and with Plasmodium vivax was 20 to 2000 µM throughout.
Turning to `[N-]=[N+]=Nc1cc(=O)[nH]c(=O)n1[C@@H]1O[C@H](CO)[C@@H](O)[C@H]1O` [Id, 6-Azido uridine], the IC50 in the data set with Plasmodium falciparum (setting [7]) and in the data set on Plasmodium vivax was 20 to 2000 µM throughout.
In the case of `COC(=O)c1cc(=O)[nH]c(=O)n1[C@@H]1O[C@H](CO)[C@@H](O)[C@H]1O` [Compound It, 6-Methoxycarbonyl uridine], the half-maximal inhibitory concentration (IC50) in the data set with Plasmodium falciparum (setting [7]) and in the data set with Plasmodium vivax was 20 to 2000 µM throughout.
As for `O=c1[nH]c(=O)n([C@@H]2O[C@H](CO)[C@@H](O)[C@H]2O)c(I)c1F` [Ip, 5-fluoro-6-iodo uridine], the IC50 in the data set with Plasmodium falciparum (setting [7]) and with Plasmodium vivax was 20 to 2000 µM in each case.
Regarding `N#Cc1cc(=O)[nH]c(=O)n1[C@@H]1O[C@H](COP(=O)(O)O)[C@@H](O)[C@H]1O` [Ib, 6-Cyanouridine-5′-monophosphate], the IC50 in the data set on Plasmodium falciparum and with Plasmodium vivax was 20 to 2000 µM each time.
